Test results from US20240324596A1, “SUBSTITUTED TOLYL FUNGICIDES” (FMC CORPORATION, priority 2023, published 2024).

Tested on: Puccinia recondita f. sp. tritici
Test: Test B: preventive spray on wheat seedlings, wheat leaf rust disease rating
Format: in vivo
Settings: 192 h, 100 = 100% disease control, 0 = no control
Text: (§1) General protocol for preparing test suspensions for Tests A-F: the test compounds were first dissolved in acetone in an amount equal to 3% of the final volume and then suspended at the desired concentration (in ppm) in acetone and purified water (50/50 mix by volume) containing 250 ppm of the surfactant PEG400 (polyhydric alcohol esters). The resulting test suspensions were then used in Tests A-F.
The test solution was sprayed to the point of run-off on wheat seedlings. The following day the seedlings were inoculated with a spore suspension of Puccinia recondita f. sp. tritici (the causal agent of wheat leaf rust) and incubated in a saturated atmosphere at 20° C. for 24 h, and then moved to a growth chamber at 20° C. for 7 days, after which time disease ratings were made.
(§2) A rating of 100 indicates 100% disease control and a rating of 0 indicates no disease control (relative to the controls). A dash (-) indicates the compound was not tested.

Row | Structure (SMILES) | pest or weed control at 10 ppm [%]
1 | COC(=O)NCc1cc(-c2ncn(-c3c(F)cc(Cl)cc3F)n2)ccc1C [Compound 105] | 100

Tested on: Phakopsora pachyrhizi
Test: Test D: preventive spray on soybean seedlings, Asian soybean rust disease rating
Format: in vivo
Settings: 216 h, 100 = 100% disease control, 0 = no control
Text: as §1
The test solution was sprayed to the point of run-off on soybean seedlings. The following day the seedlings were inoculated with a spore suspension of Phakopsora pachyrhizi (the causal agent of Asian soybean rust) and incubated in a saturated atmosphere at 22° C. for 24 h and then moved to a growth chamber at 22° C. for 8 days, after which time visual disease ratings were made.
as §2

Row | Structure (SMILES) | pest or weed control at 10 ppm [%]
2 | COC(=O)NCc1cc(-c2ncn(-c3c(F)cc(Cl)cc3F)n2)ccc1C [Compound 105] | 92

Tested on: not given
Test: not given
Settings: not given

Row | Structure (SMILES) | melting point [°C]
3 | COC(=O)NCc1cc(-c2cnn(-c3c(F)cc([N+](=O)[O-])cc3F)n2)ccc1C [Compound 118, methyl N-[[5-[2-(2,6-difluoro-4-nitrophenyl)-2H-1,2,3-triazol-4-yl]-2-methyl-phenyl]methyl]carbamate] | 152 to 156
4 | COC(=O)NCc1cc(-c2cnn(-c3c(F)cc(N)cc3F)n2)ccc1C [Compound 115, methyl N-[[5-[2-(4-amino-2,6-difluorophenyl)-2H-1,2,3-triazol-4-yl]-2-methylphenyl]methyl]carbamate] | 144 to 148
5 | COC(=O)NCc1cc(-c2cnn(-c3c(F)cc(Cl)cc3F)n2)ccc1C [Compound 117, methyl N-[[5-[2-(4-chloro-2,6-difluorophenyl)-2H-1,2,3-triazol-4-yl]-2-methylphenyl]methyl]carbamate] | 108 to 112
6 | COC(=O)NCc1cc(-c2ccn(-c3c(F)cc(C=O)cc3F)n2)ccc1C [Compound 67, methyl N-[[5-[1-(2,6-difluoro-4-formylphenyl)-1H-pyrazol-3-yl]-2-methyl-phenyl]methyl]carbamate] | 156 to 160
7 | COC(=O)NCc1cc(-c2ccn(-c3c(F)cc(C(=O)OC)cc3F)n2)ccc1C [Compound 70, methyl 3,5-difluoro-4-[3-[3-[[(methoxycarbonyl)amino]methyl]-4-methyl-phenyl]-1H-pyrazol-1-yl]benzoate] | 120 to 122
8 | COC(=O)NCc1cc(-c2ccn(-c3c(F)cc(OC(C)C)cc3F)n2)ccc1C [Compound 14, methyl N-[[5-[1-[2,6-difluoro-4-(1-methylethoxy)phenyl]-1H-pyrazol-3-yl]-2-methylphenyl]methyl]carbamate] | 133 to 134
9 | COC(=O)NCc1cc(-c2ccn(-c3c(F)cc(N)cc3F)n2)ccc1C [Compound 5, methyl N-[[5-[1-(4-amino-2,6-difluorophenyl)-1H-pyrazol-3-yl]-2-methyl-phenyl]methyl]carbamate] | 168 to 171
10 | COC(=O)NCc1cc(-c2ccn(-c3c(F)cc([N+](=O)[O-])cc3F)n2)ccc1C [Compound 1, methyl N-[[5-[1-(2,6-difluoro-4-nitrophenyl)-1H-pyrazol-3-yl]-2-methyl-phenyl]methyl]carbamate] | 131 to 134
11 | COC(=O)NCc1cc(-c2cn(-c3c(F)cc([N+](=O)[O-])cc3F)nn2)ccc1C [Compound 132, methyl N-[[5-[1-(2,6-difluoro-4-nitrophenyl)-1H-1,2,3-triazol-4-yl]-2-methylphenyl]methyl]carbamate] | 174 to 178
12 | COC(=O)NCc1cc(-c2ccn(-c3c(F)cc(CO)cc3F)n2)ccc1C [Compound 71, methyl N-[[5-[1-[2,6-difluoro-4-(hydroxymethyl)phenyl]-1H-pyrazol-3-yl]-2-methylphenyl]methyl]carbamate] | 183 to 184
13 | COC(=O)NCc1cc(-c2ccn(-c3c(F)cc(Br)cc3F)n2)ccc1C [Compound 7, methyl N-[[5-[1-(4-bromo-2,6-difluorophenyl)-1H-pyrazol-3-yl]-2-methyl-phenyl]methyl]carbamate] | 138 to 139
14 | COC(=O)NCc1cc(-c2ccn(-c3c(F)cc(O)cc3F)n2)ccc1C [Compound 10, methyl N-[[5-[1-(2,6-difluoro-4-hydroxyphenyl)-1H-pyrazol-3-yl]-2-methylphenyl]methyl]carbamate] | 178 to 180
15 | COC(=O)NCc1cc(-c2ncn(-c3c(F)cc(Cl)cc3F)n2)ccc1C [Compound 105] | 166 to 170
